Structures can show the parent of a compound that is named as a salt.
Each compound was assayed against wild type human HSD17B13 (Homo sapiens (Human), UniProt Q7Z5P4) (assay: HEK_Beta-Est LCMS_IC50_Tekcel, whole-cell HEK-HSD17B13 inhibition assay, estrone production by LCMS). Conditions: geometric mean, HEK cells stably expressing wild type human HSD17B13, 25 μM FAC beta-estradiol, read-out: HEK_Beta-Est LCMS_IC50—Tekcel GMean IC50.
Type: cell-based
Protocol: HEK_Beta-Est LCMS_IC50_Tekcel
Inhibition potency of test compounds was determined using a whole-cell HEK-HSD17B13 inhibition assay, utilizing a LCMS readout.
HSD17B13 uses the oxidized form of nicotinamide adenine dinucleotide (NAD+) as a cofactor during metabolism of beta-estradiol (substrate), converting NAD+ to the reduced form (NADH) and beta-estradiol to its product (estrone). Estrone production is quantified by LCMS, and used as a measure of HSD17B13 enzyme activity.
([…]: 5% CO2). […] Growth media was then removed from the cell plates and replaced with 10 μL of 2×FAC test compound, and incubated for 1 hour (with lid) at 37° C. […] The reaction was incubated for 2 hours (with lid) at 37° C. […] Amount of product (estrone) was then quantified by LCMS. Data expressed as product area ratio (PAR) were then normalized to control wells using Activity Base (IDBS). Zero percent effect (ZPE) was defined as PAR generated from uninhibited HSD17B13 (vehicle control).

Sequence of wild type human HSD17B13 (Q7Z5P4 20-300): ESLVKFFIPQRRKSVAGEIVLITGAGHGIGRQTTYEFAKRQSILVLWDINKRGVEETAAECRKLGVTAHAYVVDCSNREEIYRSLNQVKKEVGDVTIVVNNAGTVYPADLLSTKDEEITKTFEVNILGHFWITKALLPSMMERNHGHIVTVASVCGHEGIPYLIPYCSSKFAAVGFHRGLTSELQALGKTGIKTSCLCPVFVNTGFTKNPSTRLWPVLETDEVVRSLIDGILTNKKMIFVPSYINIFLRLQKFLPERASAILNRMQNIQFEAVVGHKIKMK

Question: How did the IC50 turn out when `O=C(NC[C@H]1CC[C@H](n2cc3ccc(-c4ccsn4)cc3n2)CC1)c1cc(F)c(O)c(F)c1` [Example 98, 3,5-difluoro-4-hydroxy-N-({(1r,4r)-4-[6-(1,2-thiazol-3-yl)-2H-indazol-2-yl]cyclohexyl}methyl) benzamide] was run?
Answer: Its IC50 is 110 nM.

Question: With `COc1ccc(-c2ccc3cn([C@H]4CC[C@H](CNC(=O)c5cc(F)c(O)c(F)c5)CC4)nc3c2)nc1` [Example 99, 3,5-difluoro-4-hydroxy-N-({(1r,4r)-4-[6-(5-methoxy-pyridin-2-yl)-2H-indazol-2-yl]cyclohexyl}methyl) benzamide, trifluoroacetate salt] as the compound, how does the IC50 read?
Answer: The IC50 was 220 nM.

Question: `O=C(NC[C@H]1CC[C@H](n2cc3ccc(-c4cnsc4)cc3n2)CC1)c1cc(F)c(O)c(F)c1` [Example 100, 3,5-difluoro-4-hydroxy-N-({(1r,4r)-4-[6-(1,2-thiazol-4-yl)-2H-indazol-2-yl]cyclohexyl}methyl)benzamide] was tested. Which IC50 did it give?
Answer: The IC50 was 65 nM.

Question: `O=C(NC[C@H]1CC[C@H](n2cc3ccc(-c4ncc5c(n4)COC5)cc3n2)CC1)c1cc(F)c(O)c(F)c1` [Example 101, N-({(1r,4r)-4-[6-(5,7-dihydrofuro[3,4-d]pyrimidin-2-yl)-2H-indazol-2-yl]cyclohexyl}methyl)-3,5-difluoro-4-hydroxybenzamide] was tested. Which IC50 did it give?
Answer: Its IC50 is 140 nM.

Question: `Cc1nnc(-c2ccc3cn([C@H]4CC[C@H](CNC(=O)c5cc(F)c(O)c(F)c5)CC4)nc3c2)s1` [Example 102, 3,5-difluoro-4-hydroxy-N-({(1r,4r)-4-[6-(5-methyl-1,3,4-thiadiazol-2-yl)-2H-indazol-2-yl]cyclohexyl}methyl) benzamide, ammonium salt] was tested. Which IC50 did it give?
Answer: The IC50 was 200 nM.

Question: Which IC50 does the source give for `O=C(NC[C@H]1CC[C@H](n2cc3ccc(-c4cn5ccccc5n4)cc3n2)CC1)c1cc(F)c(O)c(F)c1` [Example 103, 3,5-difluoro-4-hydroxy-N-({(1r,4r)-4-[6-(imidazo[1,2-a]pyridin-2-yl)-2H-indazol-2-yl]cyclohexyl}methyl) benzamide, trifluoroacetate salt] here?
Answer: Its IC50 is 360 nM.

Question: With `Cn1cc(-c2ccc3cn([C@H]4CC[C@H](CNC(=O)c5cc(F)c(O)c(F)c5)CC4)nc3c2)ccc1=O` [Example 104, 3,5-difluoro-4-hydroxy-N-({(1r,4r)-4-[6-(1-methyl-6-oxo-1,6-dihydropyridin-3-yl)-2H-indazol-2-yl]cyclohexyl}methyl) benzamide] as the compound, how does the IC50 read?
Answer: Its IC50 is 370 nM.

Question: `O=C(NC[C@H]1CC[C@H](n2cc3ccc(-c4ncc(C5CC5)s4)cc3n2)CC1)c1cc(F)c(O)c(F)c1` [Example 105, N-({(1r,4r)-4-[6-(5-cyclopropyl-1,3-thiazol-2-yl)-2H-indazol-2-yl]cyclohexyl}methyl)-3,5-difluoro-4-hydroxybenzamide] was tested. Which IC50 did it give?
Answer: Its IC50 is 370 nM.

Question: `COc1cc(-c2ccc3cn([C@H]4CC[C@H](CNC(=O)c5cc(F)c(O)c(F)c5)CC4)nc3c2)ccn1` [Example 106, 3,5-difluoro-4-hydroxy-N-({(1r,4r)-4-[6-(2-methoxypyridin-4-yl)-2H-indazol-2-yl]cyclohexyl}methyl) benzamide, trifluoroacetate salt] was tested. Which IC50 did it give?
Answer: The IC50 was 150 nM.

Question: With `Cc1nsc(-c2ccc3cn([C@H]4CC[C@H](CNC(=O)c5cc(F)c(O)c(F)c5)CC4)nc3c2)n1` [Example 107, 3,5-difluoro-4-hydroxy-N-({(1r,4r)-4-[6-(3-methyl-1,2,4-thiadiazol-5-yl)-2H-indazol-2-yl]cyclo-hexyl}methyl) benzamide] as the compound, how does the IC50 read?
Answer: The IC50 was 160 nM.

Question: Which IC50 does the source give for `COc1ccc(-c2ccc3cn([C@H]4CC[C@H](CNC(=O)c5cc(F)c(O)c(F)c5)CC4)nc3c2)cn1` [Example 108, 3,5-difluoro-4-hydroxy-N-({(1r,4r)-4-[6-(6-methoxy-pyridin-3-yl)-2H-indazol-2-yl]cyclohexyl}methyl) benzamide, trifluoroacetate salt] here?
Answer: Its IC50 is 140 nM.

Question: Which IC50 does the source give for `COc1nccc(-c2ccc3cn([C@H]4CC[C@H](CNC(=O)c5cc(F)c(O)c(F)c5)CC4)nc3c2)n1` [Example 109, 3,5-difluoro-4-hydroxy-N-({(1r,4r)-4-[6-(2-methoxy-pyrimidin-4-yl)-2H-indazol-2-yl]cyclohexyl}methyl) benzamide] here?
Answer: Its IC50 is 170 nM.
